From publication PMC6429262, “Design and Synthesis of Novel Anti-Proliferative Emodin Derivatives and Studies on their Cell Cycle Arrest, Apoptosis Pathway and Migration” (Molecules, 2019)

Key:
MCF-7 cells = assay: CellTiter-Glo Luminescent Cell Viability Assay, MCF-7; assay type: cell-based, human; settings: MCF-7 cells, 48 h, mean of three independent experiments
Procedure: (§1) The in vitro anti-proliferative activities of all the novel synthesized compounds were evaluated against HepG2 cells and MCF-7 cells by CellTiter-Glo® Luminescent Cell Viability Assay, using paclitaxel (a clinically used drug) as a positive control. Emodin (1) and compound 2 were also included for comparison.
(§2) HepG2 cells and MCF-7 cells were purchased from American Type Culture Collection (ATCC, Manassas, VA, USA). Cells were cultured in T75 flask (430641, Corning, New York, NY, USA), supplemented with high-glucose DMEM medium (Dulbecco’s modified Eagle’s medium, 11965-092, Gibco, New York, NY, USA) containing 10% Fetal bovine serum (FBS) and 1% penicillin (100 units/mL)-streptomycin (100 µg/mL) in a humidified incubator at 37 °C under 5% CO2 and 95% relative humidity (RH) atmosphere. The cells were harvested for metabolomics experiments using cell scrapers.
(§3) HepG2 cells and MCF-7 cells in 40 µL DMEM supplemented with 10% FBS were seeded at a density of 500 cells/well in 384-well cell culture plate (3570, Corning), respectively. After 24 h, the medium was substituted with fresh medium containing various sample solutions in DMSO (0.5%, v/v) at a dose range of 0.14–100 µM with 3-fold serial dilutions, and cells were cultured for another 48 h. Cells were cultured in medium without samples but 0.5% DMSO served as a control. All measurements were determined in triplicate for each treatment. After the sample treatment for 48 h, 20 µL CellTiter-Glo (G7573, Promega, Fitchburg, WI, USA) was added to each well containing cells and the contents were mixed for 2 min on an orbital shaker to induce cell lysis. The plates were then incubated at room temperature for 20 min to stabilize the luminescent signal. The luminescence was recorded on an Envision 2014 (Perkin Elmer, Waltham, MA, UAS). The IC50 values represented the samples’ concentrations required to inhibit 50% of cell proliferation and were calculated from a calibration curve by linear regression using GraphPad Prism 7.0 software (GraphPad Software, San Diego, CA, USA).

HepG2 cells = assay: CellTiter-Glo Luminescent Cell Viability Assay, HepG2; assay type: cell-based, human; settings: HepG2 cells, 48 h, mean of three independent experiments
Procedure: as §1, §2, §3

SMILES | IC50 (MCF-7 cells; Homo sapiens, MCF7, 48 h) [µM] | IC50 (HepG2 cells; Homo sapiens, HepG2, 48 h) [µM] | IC50 (MCF-7 cells) [µM] | IC50 (HepG2 cells) [µM]
Cc1cc(O)c2c(c1)C(=O)c1cc(OCCO)cc(O)c1C2=O [Compound 2, 1,8-Dihydroxy-3-(2-hydroxyethoxy)-6-methylanthracene-9,10-dione] | 86.4 ± 3.98 | 64.1 ± 2.37 | – | –
Cc1cc(O)c2c(c1)C(=O)c1cc(OCCOC(=O)CN)cc(O)c1C2=O [Compound 3a, 2-(2-(4,5-Dihydroxy-7-methyl-9,10-dioxo-9,10-dihydroanthracen-2-yloxy)ethoxy)-2-oxoethanaminium 2,2,2-trifluoroacetate] | 66.9 ± 1.65 | 22.7 ± 0.78 | – | –
Cc1cc(O)c2c(c1)C(=O)c1cc(OCCOC(=O)[C@@H](N)CO)cc(O)c1C2=O [Compound 3d, (S)-1-(2-(4,5-Dihydroxy-7-methyl-9,10-dioxo-9,10-dihydroanthracen-2-yloxy)ethoxy)-3-hydroxy-1-oxopropan-2-aminium 2,2,2-trifluoroacetate] | 34 ± 1.98 | 12 ± 1.19 | – | –
Cc1cc(O)c2c(c1)C(=O)c1cc(OCCOC(=O)[C@H](N)C(C)C)cc(O)c1C2=O [Compound 3e, (R)-1-(2-(4,5-Dihydroxy-7-methyl-9,10-dioxo-9,10-dihydroanthracen-2-yloxy)ethoxy)-3-methyl-1-oxobutan-2-aminium 2,2,2-trifluoroacetate] | 14.2 ± 0.23 | 14.4 ± 1.09 | – | –
Cc1cc(O)c2c(c1)C(=O)c1cc(OCCOC(=O)[C@@H](N)C(C)C)cc(O)c1C2=O [Compound 3f, (S)-1-(2-(4,5-Dihydroxy-7-methyl-9,10-dioxo-9,10-dihydroanthracen-2-yloxy)ethoxy)-3-methyl-1-oxobutan-2-aminium 2,2,2-trifluoroacetate] | 16 ± 0.51 | 12.4 ± 0.35 | – | –
Cc1cc(O)c2c(c1)C(=O)c1cc(OCCOC(=O)[C@@H](N)CC(C)C)cc(O)c1C2=O [Compound 3g, (S)-1-(2-(4,5-Dihydroxy-7-methyl-9,10-dioxo-9,10-dihydroanthracen-2-yloxy)ethoxy)-4-methyl-1-oxopentan-2-aminium 2,2,2-trifluoroacetate] | 16.1 ± 0.23 | 15.9 ± 0.33 | – | –
CCC(C)[C@H](N)C(=O)OCCOc1cc(O)c2c(c1)C(=O)c1cc(C)cc(O)c1C2=O (stereo partly drawn) [Compound 3h, (2S)-1-(2-(4,5-dihydroxy-7-methyl-9,10-dioxo-9,10-dihydroanthracen-2-yloxy)ethoxy)-3-methyl-1-oxo-pentan-2-aminium 2,2,2-trifluoroacetate] | 12.8 ± 1.05 | 14.4 ± 0.27 | – | –
CSCC[C@H](N)C(=O)OCCOc1cc(O)c2c(c1)C(=O)c1cc(C)cc(O)c1C2=O [Compound 3i, (S)-1-(2-(4,5-Dihydroxy-7-methyl-9,10-dioxo-9,10-dihydroanthracen-2-yloxy)ethoxy)-4-(methylthio)-1-oxobutan-2-aminium 2,2,2-trifluoroacetate] | 17.2 ± 0.41 | 17.2 ± 0.2 | – | –
Cc1cc(O)c2c(c1)C(=O)c1cc(OCCOC(=O)C(C)(C)N)cc(O)c1C2=O [Compound 3j, 1-(2-(4,5-Dihydroxy-7-methyl-9,10-dioxo-9,10-dihydroanthracen-2-yloxy)ethoxy)-2-methyl-1-oxopropan-2-aminium 2,2,2-trifluoroacetate] | 29.8 ± 1.78 | 25.8 ± 5.28 | – | –
Cc1cc(O)c2c(c1)C(=O)c1cc(OCCOC(=O)C3(N)CC3)cc(O)c1C2=O [Compound 3k, 1-((2-(4,5-Dihydroxy-7-methyl-9,10-dioxo-9,10-dihydroanthracen-2-yloxy)ethoxy)carbonyl)cyclopropan-aminium 2,2,2-trifluoroacetate] | > 100 | 53.2 ± 8.7 | – | –
Cc1cc(O)c2c(c1)C(=O)c1cc(OCCOC(=O)C3(N)CCC3)cc(O)c1C2=O [Compound 3l, 1-((2-(4,5-Dihydroxy-7-methyl-9,10-dioxo-9,10-dihydroanthracen-2-yloxy)ethoxy)carbonyl)cyclobutan-aminium 2,2,2-trifluoroacetate] | > 100 | 67.49 ± 0.56 | – | –
Cc1cc(O)c2c(c1)C(=O)c1cc(OCCOC(=O)C3(N)COC3)cc(O)c1C2=O [Compound 3m, 3-((2-(4,5-Dihydroxy-7-methyl-9,10-dioxo-9,10-dihydroanthracen-2-yloxy)ethoxy)carbonyl)oxetan-3-aminium 2,2,2-trifluoroacetate] | > 100 | > 100 | – | –

Next, values leading:

IC50 (MCF-7 cells; Homo sapiens, MCF7, 48 h) [µM] | IC50 (HepG2 cells; Homo sapiens, HepG2, 48 h) [µM] | IC50 (MCF-7 cells) [µM] | IC50 (HepG2 cells) [µM] | SMILES
23.5 ± 1.93 | 12.5 ± 0.59 | 18.5 ± 1.93 | 17.5 ± 0.59 | Cc1cc(O)c2c(c1)C(=O)c1cc(OCCOC(=O)C3(N)CCCC3)cc(O)c1C2=O [Compound 3n, 1-((2-(4,5-Dihydroxy-7-methyl-9,10-dioxo-9,10-dihydroanthracen-2-yloxy)ethoxy)carbonyl)cyclopentan-aminium 2,2,2-trifluoroacetate]
17.6 ± 0.29 | 17.6 ± 0.43 | – | – | Cc1cc(O)c2c(c1)C(=O)c1cc(OCCOC(=O)[C@H]3CCCN3)cc(O)c1C2=O [Compound 3o, (R)-2-((2-(4,5-Dihydroxy-7-methyl-9,10-dioxo-9,10-dihydroanthracen-2-yloxy)ethoxy)carbonyl)-pyrrolidinium 2,2,2-trifluoroacetate]
20 ± 1.82 | 19 ± 0.6 | – | – | Cc1cc(O)c2c(c1)C(=O)c1cc(OCCOC(=O)[C@@H]3CCCN3)cc(O)c1C2=O [Compound 3p, (S)-2-((2-(4,5-Dihydroxy-7-methyl-9,10-dioxo-9,10-dihydroanthracen-2-yloxy)ethoxy)carbonyl)-pyrrolidinium 2,2,2-trifluoroacetate]
28.5 ± 1.74 | 25.9 ± 0.48 | – | – | Cc1cc(O)c2c(c1)C(=O)c1cc(OCCOC(=O)[C@H](N)c3ccccc3)cc(O)c1C2=O [Compound 3q, (R)-2-(2-(4,5-Dihydroxy-7-methyl-9,10-dioxo-9,10-dihydroanthracen-2-yloxy)ethoxy)-2-oxo-1-phenyl-ethanaminium 2,2,2-trifluoroacetate]
25.7 ± 0.61 | 19.3 ± 1.08 | – | – | Cc1cc(O)c2c(c1)C(=O)c1cc(OCCOC(=O)[C@@H](N)c3ccccc3)cc(O)c1C2=O [Compound 3r, (S)-2-(2-(4,5-Dihydroxy-7-methyl-9,10-dioxo-9,10-dihydroanthracen-2-yloxy)ethoxy)-2-oxo-1-phenyl-ethanaminium 2,2,2-trifluoroacetate]
25.9 ± 1.09 | 18.5 ± 0.55 | – | – | Cc1cc(O)c2c(c1)C(=O)c1cc(OCCOC(=O)[C@H](N)c3ccc(O)cc3)cc(O)c1C2=O [Compound 3s, (R)-2-(2-(4,5-Dihydroxy-7-methyl-9,10-dioxo-9,10-dihydroanthracen-2-yloxy)ethoxy)-1-(4-hydroxyphenyl)-2-oxoethanaminium 2,2,2-trifluoroacetate]
39.6 ± 1.97 | 26.1 ± 1.44 | – | – | Cc1cc(O)c2c(c1)C(=O)c1cc(OCCOC(=O)[C@@H](N)c3ccc(O)cc3)cc(O)c1C2=O [Compound 3t, (S)-2-(2-(4,5-Dihydroxy-7-methyl-9,10-dioxo-9,10-dihydroanthracen-2-yloxy)ethoxy)-1-(4-hydroxyphenyl)-2-oxoethanaminium 2,2,2-trifluoroacetate]
20.8 ± 0.32 | 14.3 ± 1.04 | – | – | Cc1cc(O)c2c(c1)C(=O)c1cc(OCCOC(=O)[C@H](N)c3ccc(F)cc3)cc(O)c1C2=O [Compound 3u, (R)-2-(2-(4,5-Dihydroxy-7-methyl-9,10-dioxo-9,10-dihydroanthracen-2-yloxy)ethoxy)-1-(4-fluorophenyl)-2-oxoethanaminium 2,2,2-trifluoroacetate]
22.6 ± 0.9 | 11.4 ± 0.77 | – | – | Cc1cc(O)c2c(c1)C(=O)c1cc(OCCOC(=O)[C@@H](N)c3ccc(F)cc3)cc(O)c1C2=O [Compound 3v, (S)-2-(2-(4,5-Dihydroxy-7-methyl-9,10-dioxo-9,10-dihydroanthracen-2-yloxy)ethoxy)-1-(4-fluorophenyl)-2-oxoethanaminium 2,2,2-trifluoroacetate]
42.4 ± 1.16 | 31.5 ± 2.72 | – | – | Cc1cc(O)c2c(c1)C(=O)c1cc(OCCOC(=O)[C@H](N)Cc3ccccc3)cc(O)c1C2=O [Compound 3w, (R)-1-(2-(4,5-Dihydroxy-7-methyl-9,10-dioxo-9,10-dihydroanthracen-2-yloxy)ethoxy)-1-oxo-3-phenyl-propan-2-aminium 2,2,2-trifluoroacetate]
18.1 ± 0.32 | 16.2 ± 0.36 | – | – | Cc1cc(O)c2c(c1)C(=O)c1cc(OCCOC(=O)[C@@H](N)Cc3ccccc3)cc(O)c1C2=O [Compound 3x, (S)-1-(2-(4,5-Dihydroxy-7-methyl-9,10-dioxo-9,10-dihydroanthracen-2-yloxy)ethoxy)-1-oxo-3-phenyl-propan-2-aminium 2,2,2-trifluoroacetate]
38.3 ± 1.92 | 20.3 ± 1.4 | – | – | Cc1cc(O)c2c(c1)C(=O)c1cc(OCCOC(=O)[C@H](N)Cc3ccc(O)cc3)cc(O)c1C2=O [Compound 3y, (R)-1-(2-(4,5-Dihydroxy-7-methyl-9,10-dioxo-9,10-dihydroanthracen-2-yloxy)ethoxy)-3-(4-hydroxyphenyl)-1-oxopropan-2-aminium 2,2,2-trifluoroacetate]
